Experimental findings from patent publication US20260035365A1, “1H-PYRROLO[3,2-B]PYRIDINE DERIVATIVES AS IRREVERSIBLE INHIBITORS OF MUTANT EGFR FOR THE TREATMENT OF CANCER” (Bayer Aktiengesellschaft, priority 2022, published 2026) are described below.

Assay [1] has as its target mutEGFR (D770_N771insSVD) (Homo sapiens, UniProt P00533, INS767SVD). Kind of assay: Exon20-mutant-EGFR (D770_N771insSVD) TR-FRET kinase assay. The class given is biochemical. The note with it: 2 mM ATP, 15 min preincubation. The source says: Inhibitory activity of compounds of the present invention against an Epidermal Growth Factor Receptor (EGFR) with an insertion of the amino acids sequence SVD between D770 and N771 (SEQ ID No. 5) was quantified employing the TR-FRET based kinase activity assay as described in the following paragraphs.
A recombinant fusion protein of N-terminal Glutathion-S-Transferase (GST) and a fragment of human EGFR variant (amino acids R669 to A1210 with insertion of the amino acids sequence SVD between D770 and N771 (SEQ ID No. 5) (“EGFR ins SVD”), expressed in Sf9 insect cells and purified via affinity chromatography using Glutathion Sepharose as described above, was used as a kinase. As substrate for the kinase reaction the biotinylated peptide biotin-Ahx-AEEEEYFELVAKKK (C-terminus in amide form) (SEQ ID No. 6) was used which can be purchased e.g. form the company Biosynthan GmbH (Berlin-Buch, Germany).
For the assay 50 nl of a 100-fold concentrated solution of the test compound in DMSO was pipetted into either a black low volume 384 well microtiter plate or a black 1536 well microtiter plate (both Greiner Bio-One, Frickenhausen, Germany), 2 μl of a solution of EGFR in aqueous assay buffer [50 mM Hepes pH 7.0, 10 mM MgCl2, 1 mM dithiothreitol, 0.5 mM EGTA, 0.3 mM activated sodium ortho-vanadate, 0.005% (w/v) bovine serum albumin, 0.005% (v/v) Tween-20] were added and the mixture was incubated for 15 min at 22° C. to allow pre binding of the test compounds to the enzyme before the start of the kinase reaction. […] The concentration of EGFR was adjusted depending of the activity of the enzyme lot and was chosen appropriate to have the assay in the linear range, typical concentration was 15 pg/μl. The reaction was stopped by the addition of 3 μl of a solution of HTRF detection reagents (83.3 nM streptavidine-XL665 [Cisbio Bioassays, Codolet, France] and 1.67 nM PT66-Tb-Cryptate, a terbium-cryptate labelled anti-phospho-tyrosine antibody from Cisbio Bioassays [instead of the PT66 Tb cryptate PT66 Eu Chelate from Perkin Elmer can also be used]) in an aqueous EDTA-solution (133.3 mM EDTA, 0.2% (w/v) bovine serum albumin in 50 mM HEPES pH 7.5).
The resulting mixture was incubated 1 h at 22° C. to allow the binding of the biotinylated phosphorylated peptide to the streptavidine-XL665 and the PT66-Tb-Cryptate. Subsequently, the amount of phosphorylated substrate was evaluated by measurement of the resonance energy transfer from the PT66-Tb-Cryptate to the streptavidine-XL665. Therefore, the fluorescence emissions at 620 nm and 665 nm after excitation at 337 nm were measured in a HTRF reader, e.g. a Pherastar (BMG Labtechnologies, Offenburg, Germany) or a Viewlux (Perkin-Elmer). The ratio of the emissions at 665 nm and at […] was taken as the measure for the amount of phosphorylated substrate. The data were normalised (enzyme reaction without inhibitor=0% inhibition, all other assay components but no enzyme=100% inhibition).

Assay [2] deals with mutEGFR (D770_N771insNPG, T790). Put plainly: mutEGFR (D770_N771insNPG, T790) kinase assay. In kind it is biochemical, human.
Chain of mutEGFR (D770_N771insNPG, T790) (P00533 with tags, fused parts or gaps INS770NPG limits assumed): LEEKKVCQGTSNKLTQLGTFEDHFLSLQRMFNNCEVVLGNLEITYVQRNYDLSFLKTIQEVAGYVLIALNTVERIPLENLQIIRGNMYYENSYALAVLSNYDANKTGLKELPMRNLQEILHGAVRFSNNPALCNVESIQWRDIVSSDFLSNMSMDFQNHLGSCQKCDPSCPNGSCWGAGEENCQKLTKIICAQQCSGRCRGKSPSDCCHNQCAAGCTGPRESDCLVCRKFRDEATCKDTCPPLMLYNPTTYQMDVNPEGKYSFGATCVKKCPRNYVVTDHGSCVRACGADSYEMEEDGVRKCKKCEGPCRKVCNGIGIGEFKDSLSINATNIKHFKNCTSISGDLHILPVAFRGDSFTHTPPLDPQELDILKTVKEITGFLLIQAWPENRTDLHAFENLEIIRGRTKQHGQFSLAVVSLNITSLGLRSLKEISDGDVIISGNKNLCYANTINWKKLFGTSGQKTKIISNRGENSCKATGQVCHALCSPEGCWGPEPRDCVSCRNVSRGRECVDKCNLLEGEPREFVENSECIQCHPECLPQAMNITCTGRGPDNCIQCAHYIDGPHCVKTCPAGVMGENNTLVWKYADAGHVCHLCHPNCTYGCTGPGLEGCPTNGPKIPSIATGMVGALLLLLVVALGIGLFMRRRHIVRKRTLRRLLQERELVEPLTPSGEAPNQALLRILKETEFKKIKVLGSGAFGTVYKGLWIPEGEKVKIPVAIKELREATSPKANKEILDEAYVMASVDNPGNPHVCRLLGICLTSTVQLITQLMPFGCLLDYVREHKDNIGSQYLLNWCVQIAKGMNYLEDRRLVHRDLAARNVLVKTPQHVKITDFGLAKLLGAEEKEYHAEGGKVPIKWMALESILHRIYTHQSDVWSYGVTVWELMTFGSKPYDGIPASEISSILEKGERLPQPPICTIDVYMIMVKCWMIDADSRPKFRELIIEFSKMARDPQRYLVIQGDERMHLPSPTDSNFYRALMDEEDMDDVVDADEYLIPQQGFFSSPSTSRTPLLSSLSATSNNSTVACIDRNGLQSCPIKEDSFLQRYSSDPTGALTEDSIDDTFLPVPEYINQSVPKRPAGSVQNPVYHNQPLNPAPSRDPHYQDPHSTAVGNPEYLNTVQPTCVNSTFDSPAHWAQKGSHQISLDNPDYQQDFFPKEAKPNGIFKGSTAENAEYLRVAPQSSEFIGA
The next assay concerns BA/F3 (insSVD) cells. Kind of assay: Ba/F3 cell survival assay (Cell Titer-Glo), EGFR-insSVD. In kind it is cell-based. The conditions noted are these: without IL-3, with EGF. How it is done:
293T cells from ATCC were transfected with pBABEpuro expression constructs for WT EGFR or EGFR-insSVD, or EGFR-insSVD T790M, and pCL-Eco packaging vector using Fugene-6 transfection reagent from Promega. Plates were incubated at 37° C. for 48 h. Retrovirus was harvested by filtering the media supernatant through a 0.45 μm filter.
Ba/F3 cells purchased from DSMZ were grown in RPMI+10% FBS+10 ng/mL IL-3 and infected with filtered retroviral supernatant at a 1:2 dilution. Polybrene was added to a concentration of 8 μg/mL, plates were spun for 90 min, and incubated for 16 h at 37° C. 2 μg/mL puromycin was added to the infected cells 24 h after infection and cells were continually grown in the presence of puromycin and 10 ng/mL IL-3. Following stably expressing Ba/F3 cell lines were generated: Ba/F3-EGFR-WT, Ba/F3-EGFR-insSVD, Ba/F3-EGFR-insSVD T790M, (Ba/F3-vector-control).
For cell survival assays, Ba/F3 cells were grown to a density of 1-2 million cells per mL, spun down and resuspended in media without IL-3, and replated at a concentration of 200,000-500,000 cells per mL. The cells ectopically expressing WT EGFR, EGFR-insSVD, or EGFR-insSVD T790M were plated with 10 ng/mL Millipore Culture grade EGF. The cells ectopically expressing pBABEpuro empty vector were plated with 10 ng/mL IL-3.
2 days later, cells were plated in 50 μL in a 384 well plate at a concentration of 4000 cells per well for cells assayed in the absence of IL-3 and 2000 cells per well for cells assayed in the presence of IL-3. 100 nL of compound was added to each well using a 100 nL pin head, and plates were incubated at 37° C. for 48 h.
Cell viability was measured by adding 20 μL of Cell Titer-Glo Luminescent Cell Viability Reagent diluted 1:3 in PBS. Plates were sealed with Perkin Elmer Top-Seal, inverted several times to mix, and immediately centrifuged at 1000 rpm for 2 min. Plates were incubated in low light conditions for 8-10 min and luminescence was measured.

Structures are written as SMILES.

Chain of mutEGFR (D770_N771insSVD) (P00533 with tags, fused parts or gaps INS767SVD limits assumed): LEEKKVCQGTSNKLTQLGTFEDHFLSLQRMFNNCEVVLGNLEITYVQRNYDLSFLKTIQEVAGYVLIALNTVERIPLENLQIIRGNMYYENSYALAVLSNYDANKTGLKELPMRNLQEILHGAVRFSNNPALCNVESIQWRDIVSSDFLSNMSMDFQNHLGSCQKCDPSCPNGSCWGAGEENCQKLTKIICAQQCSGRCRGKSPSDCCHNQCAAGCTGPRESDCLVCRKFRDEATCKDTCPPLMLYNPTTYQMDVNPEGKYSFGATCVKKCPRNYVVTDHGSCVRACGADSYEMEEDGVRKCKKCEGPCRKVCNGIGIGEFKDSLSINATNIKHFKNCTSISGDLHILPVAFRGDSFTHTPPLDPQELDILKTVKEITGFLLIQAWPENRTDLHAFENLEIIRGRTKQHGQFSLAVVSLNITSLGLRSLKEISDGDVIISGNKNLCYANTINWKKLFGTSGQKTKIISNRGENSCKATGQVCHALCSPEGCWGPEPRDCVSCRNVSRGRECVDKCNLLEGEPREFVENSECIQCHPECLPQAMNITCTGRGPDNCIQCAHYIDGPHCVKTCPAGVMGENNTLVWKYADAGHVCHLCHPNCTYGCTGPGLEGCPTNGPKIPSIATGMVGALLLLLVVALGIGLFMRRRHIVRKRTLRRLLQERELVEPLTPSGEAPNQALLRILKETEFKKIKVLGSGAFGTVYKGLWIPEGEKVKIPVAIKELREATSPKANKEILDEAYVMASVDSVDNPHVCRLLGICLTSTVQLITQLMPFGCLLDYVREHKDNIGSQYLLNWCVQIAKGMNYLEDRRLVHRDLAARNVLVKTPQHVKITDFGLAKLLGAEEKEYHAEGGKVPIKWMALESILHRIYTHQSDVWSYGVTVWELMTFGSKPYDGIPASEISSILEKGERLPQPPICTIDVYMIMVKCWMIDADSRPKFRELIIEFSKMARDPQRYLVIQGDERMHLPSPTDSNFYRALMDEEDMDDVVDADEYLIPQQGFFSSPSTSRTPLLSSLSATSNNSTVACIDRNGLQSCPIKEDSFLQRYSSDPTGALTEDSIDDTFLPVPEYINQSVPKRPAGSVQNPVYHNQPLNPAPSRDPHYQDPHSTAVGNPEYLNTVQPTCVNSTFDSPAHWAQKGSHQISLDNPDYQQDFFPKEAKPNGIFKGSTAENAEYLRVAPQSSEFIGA

In general, IC50 refers to the concentration at which inhibition is half-maximal. As to `C=CC(=O)N1CCC(Oc2cnccc2-c2[nH]c3cccnc3c2-c2ccccc2)C1` (racemic) [Example 116, 1-[(3RS)-3-{[4-(3-phenyl-1H-pyrrolo[3,2-b]pyridin-2-yl)pyridin-3-yl]oxy}pyrrolidin-1-yl]prop-2-en-1-one], the IC50 in assay [1] turned out to be 52.4 nM; in assay [2], 215 nM; in the assay with BA/F3 (insSVD) cells (Mus musculus, BaF3, 48 h) it was 1520 nM.
Turning to `C#CC(=O)N1CCC(Oc2cnccc2-c2[nH]c3cccnc3c2-c2ccccc2)C1` (racemic) [Example 117, 1-[(3RS)-3-{[4-(3-phenyl-1H-pyrrolo[3,2-b]pyridin-2-yl)pyridin-3-yl]oxy}pyrrolidin-1-yl]prop-2-yn-1-one], the IC50 in assay [1] was found to be 90.2 nM; in assay [2] it was 296 nM; in the assay on BA/F3 (insSVD) cells (Mus musculus, BaF3, 48 h) it was 4430 nM.
The matching figures for `C=CS(=O)(=O)N1CCC(Oc2cnccc2-c2[nH]c3cccnc3c2-c2ccccc2)C1` (racemic) [Example 118, 2-(3-{[(3RS)-1-(ethenesulfonyl)pyrrolidin-3-yl]oxy}pyridin-4-yl)-3-phenyl-1H-pyrrolo[3,2-b]pyridine]: 16.8 nM, 79.9 nM and 723 nM.
The matching figures for `C=CC(=O)N1CCC(Oc2cnccc2-c2[nH]c3cccnc3c2-c2cccc(Cl)c2)C1` (racemic) [Example 119, 1-[(3RS)-3-({4-[3-(3-chlorophenyl)-1H-pyrrolo[3,2-b]pyridin-2-yl]pyridin-3-yl}oxy)pyrrolidin-1-yl]prop-2-en-1-one]: 14 nM, 58 nM and 549 nM.
The matching figures for `C#CC(=O)N1CCC(Oc2cnccc2-c2[nH]c3cccnc3c2-c2cccc(Cl)c2)C1` (racemic) [Example 120, 1-[(3RS)-3-({4-[3-(3-chlorophenyl)-1H-pyrrolo[3,2-b]pyridin-2-yl]pyridin-3-yl}oxy)pyrrolidin-1-yl]prop-2-yn-1-one]: 38.5 nM, 98.7 nM and 1190 nM.
For `C=CS(=O)(=O)N1CCC(Oc2cnccc2-c2[nH]c3cccnc3c2-c2cccc(Cl)c2)C1` (racemic) [Example 121, 3-(3-chlorophenyl)-2-(3-{[(3RS)-1-(ethenesulfonyl)pyrrolidin-3-yl]oxy}pyridin-4-yl)-1H-pyrrolo[3,2-b]pyridine], the IC50 was found to be 6.91 nM in assay [1]; 18 nM in assay [2]; 497 nM with BA/F3 (insSVD) cells (Mus musculus, BaF3, 48 h).
On the same counts, the results for `C=CC(=O)N1CCC(Oc2cnccc2-c2[nH]c3cccnc3c2-c2cccc(C(F)(F)F)c2)C1` (racemic) [Example 122, 1-{(3RS)-3-[(4-{3-[3-(trifluoromethyl)phenyl]-1H-pyrrolo[3,2-b]pyridin-2-yl}pyridin-3-yl)oxy]pyrrolidin-1-yl}prop-2-en-1-one] are 123 nM, 775 nM and 2590 nM.
On the same counts, the results for `C#CC(=O)N1CCC(Oc2cnccc2-c2[nH]c3cccnc3c2-c2cccc(C(F)(F)F)c2)C1` (racemic) [Example 123, 1-{(3RS)-3-[(4-{3-[3-(trifluoromethyl)phenyl]-1H-pyrrolo[3,2-b]pyridin-2-yl}pyridin-3-yl)oxy]pyrrolidin-1-yl}prop-2-yn-1-one] are 173 nM, 701 nM and 832 nM.
On the same counts, the results for `C=CC(=O)N1CCC(Oc2cnccc2-c2[nH]c3cccnc3c2-c2cc(C)ccc2F)C1` (racemic) [Example 124, 1-[(3RS)-3-({4-[3-(2-fluoro-5-methylphenyl)-1H-pyrrolo[3,2-b]pyridin-2-yl]pyridin-3-yl}oxy)pyrrolidin-1-yl]prop-2-en-1-one] are 26.2 nM, 121 nM and 904 nM.
Turning to `C#CC(=O)N1CCC(Oc2cnccc2-c2[nH]c3cccnc3c2-c2cc(C)ccc2F)C1` (racemic) [Example 125, 1-[(3RS)-3-({4-[3-(2-fluoro-5-methylphenyl)-1H-pyrrolo[3,2-b]pyridin-2-yl]pyridin-3-yl}oxy)pyrrolidin-1-yl]prop-2-yn-1-one], the IC50 in assay [1] is 80.8 nM; in assay [2] it was 219 nM; in the assay on BA/F3 (insSVD) cells (Mus musculus, BaF3, 48 h), 1030 nM.
On the same counts, the results for `C=CS(=O)(=O)N1CCC(Oc2cnccc2-c2[nH]c3cccnc3c2-c2cc(C)ccc2F)C1` (racemic) [Example 126, 2-(3-{[(3RS)-1-(ethenesulfonyl)pyrrolidin-3-yl]oxy}pyridin-4-yl)-3-(2-fluoro-5-methylphenyl)-1H-pyrrolo[3,2-b]pyridine] are 13.8 nM, 39.8 nM and 807 nM.
The matching figures for `C=CC(=O)N1CCC(Oc2cnccc2-c2[nH]c3cccnc3c2-c2cc(Cl)ccc2F)C1` (racemic) [Example 127, 1-[(3RS)-3-({4-[3-(5-chloro-2-fluorophenyl)-1H-pyrrolo[3,2-b]pyridin-2-yl]pyridin-3-yl}oxy)pyrrolidin-1-yl]prop-2-en-1-one]: 25.4 nM, 97.6 nM and 691 nM.
The matching figures for `C=CC(=O)N1CCC1(C)COc1cnccc1-c1[nH]c2cccnc2c1-c1ccccc1` (racemic) [Example 145, 1-[(2RS)-2-methyl-2-({[4-(3-phenyl-1H-pyrrolo[3,2-b]pyridin-2-yl)pyridin-3-yl]oxy}methyl)azetidin-1-yl]prop-2-en-1-one]: 3510 nM, 17400 nM and 9980 nM.
In the case of `C=CS(=O)(=O)N1CCC1(C)COc1cnccc1-c1[nH]c2cccnc2c1-c1cccc(C(F)(F)F)c1` (racemic) [Example 148, 2-(3-{[(2RS)-1-(ethenesulfonyl)-2-methylazetidin-2-yl]methoxy}pyridin-4-yl)-3-[3-(trifluoromethyl)phenyl]-1H-pyrrolo[3,2-b]pyridine], the IC50 in assay [1] was 105 nM; in assay [2], 627 nM; in the assay with BA/F3 (insSVD) cells (Mus musculus, BaF3, 48 h) it was 2780 nM.
`C=CC(=O)N1C[C@@H](N(C)CCN(C)C)C[C@H]1COc1cnccc1-c1[nH]c2cccnc2c1-c1ccccc1` (single isomer, unassigned) [Example 131]: the IC50 in assay [1] was 1.17 nM; in assay [2], 3.58 nM; with BA/F3 (insSVD) cells (48 h), 54.6 nM.
In the case of `C=CC(=O)N1CCCC[C@H]1COc1cnccc1-c1[nH]c2cccnc2c1-c1ccccc1` [Example 130, 1-[(2S)-2-({[4-(3-phenyl-1H-pyrrolo[3,2-b]pyridin-2-yl)pyridin-3-yl]oxy}methyl)piperidin-1-yl]prop-2-en-1-one], the IC50 came to 337 nM in assay [1] and 1620 nM in the assay on BA/F3 (insSVD) cells (Mus musculus, BaF3, 48 h).
